Measured values as given in patent US20250213701A1, “MEDICAMENT FOR TREATING HUMAN TUMOR BASED ON ERF3A-TARGETING PROTEOLYSIS MECHANISM” (SUZHOU DEGEN BIO-MEDICAL CO., LTD., priority 2022, published 2025).

Experiments:
PC-3 cells = test: Anti-proliferative toxicity against prostate cancer cell line PC-3 (CCK8); type: cell-based, human; conditions: Homo sapiens, 72 h, 3 days
How it was run: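 PC-3 cells (4000/well, pre-cultured 24 h) exposed in triplicate to compound at final 0.00001-1.0 μM for 3 days at 37 °C, 5% CO2. Viability read by CCK8, 1-4 h at 37 °C, absorbance at 450 nm.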

22Rv1 cells = test: Anti-proliferative toxicity against prostate cancer cell line 22Rv1 (CCK8); type: cell-based, human; conditions: 3 days; for IC50: Homo sapiens, 72 h, CCK8
How it was run: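 22Rv1 cells pre-cultured for 48 h, then exposed to compounds at 0.00001-1.0 μM final, in triplicate, for 3 days. Viability read by CCK8 absorbance at 450 nm after 1-4 h at 37 °C.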

VCaP cells = test: Anti-proliferative toxicity against prostate cancer cell line Vcap (CCK8); type: cell-based, human; conditions: 3 days; for IC50: Homo sapiens, 72 h, CCK8
How it was run: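 VCaP cells (DMEM, 10% FBS) seeded 20000 cells/well, cultured 72 h, then exposed in triplicate to compound at final well concentrations of 0.00001–0.16 μM for 3 days at 37 °C, 5% CO2. Viability by CCK8, 1–4 h at 37 °C, absorbance at 450 nm.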

MDA-MB-468 cells = test: Anti-proliferative toxicity of C63 in tumor cell lines (CCK8): MDA-MB-468; type: cell-based; conditions: Homo sapiens, 72 h, 3 days, read-out: Inhibition rate
Method: Example 83: Detection of Anti-Proliferative Toxicity of C63 in Some Tumor Cell Lines
MDA-MB-468 cells (purchased from the Cell Bank of the Chinese Academy of Sciences, Cat. No. TCHu136) were subcultured in a culture medium (L15 medium+1% penicillin-streptomycin dual-antibiotic solution+10% fetal bovine serum) in an incubator at 37° C.
MDA-MB-468 cells were seeded at 5000 cells/well (90 μL) on a 96-well plate and cultured for 24 h.
10 mM compound stock solutions were prepared in DMSO.
The compound stock solution was diluted with DMSO to give DMSO solutions 1-9 at concentrations of 0 μM, 2500 μM, 500 μM, 100 μM, 20 μM, 4 μM, 0.8 μM, 0.16 μM, and 0.032 μM.
2 μL of each of solutions 1-9 was added to 98 μL of the medium to give mixed solutions 11-19 of the compound and the medium.
10 μL of each of solutions 11-19 was added to the above cell seed solution to give a total volume of 100 μL (90 μL+10 μL).
The concentrations of the compound in the wells were 0 μM, 5.0 μM, 1.0 μM, 0.2 μM, 0.04 μM, 0.008 μM, 0.0016 μM, 0.00032 μM, and 0.000064 μM. All concentrations were in triplicate.
After the above-treated cells were cultured for 3 days, 10 μL of the CCK8 solution (DOJINDO, Cat. No. PF725) was added to each well. The plate was incubated in an incubator at 37° C. for 1-4 h and then detected on a microplate reader for the reading at 450 nm.

| SMILES | IC50 (PC-3 cells) [nM] | Anti-proliferative toxicity data in 22Rv1 cells (22Rv1 cells; 0.00001 μM) [%] | Anti-proliferative toxicity data in 22Rv1 cells (22Rv1 cells; 0.00006 μM) [%] | Anti-proliferative toxicity data in 22Rv1 cells (22Rv1 cells; 0.00032 μM) [%] | Anti-proliferative toxicity data in 22Rv1 cells (22Rv1 cells; 0.00160 μM) [%] | Anti-proliferative toxicity data in 22Rv1 cells (22Rv1 cells; 0.00800 μM) [%] | Anti-proliferative toxicity data in 22Rv1 cells (22Rv1 cells; 0.04000 μM) [%] | Anti-proliferative toxicity data in 22Rv1 cells (22Rv1 cells; 0.20000 μM) [%] | Anti-proliferative toxicity data in 22Rv1 cells (22Rv1 cells; 1.00000 μM) [%] | IC50 (22Rv1 cells) [nM] | Anti-proliferative toxicity data in VCaP cells (VCaP cells; 0.00001 μM) [%] | Anti-proliferative toxicity data in VCaP cells (VCaP cells; 0.00005 μM) [%] | Anti-proliferative toxicity data in VCaP cells (VCaP cells; 0.00010 μM) [%] | Anti-proliferative toxicity data in VCaP cells (VCaP cells; 0.00030 μM) [%] | Anti-proliferative toxicity data in VCaP cells (VCaP cells; 0.00100 μM) [%] | Anti-proliferative toxicity data in VCaP cells (VCaP cells; 0.00300 μM) [%] | Anti-proliferative toxicity data in VCaP cells (VCaP cells; 0.00600 μM) [%] | Anti-proliferative toxicity data in VCaP cells (VCaP cells; 0.03200 μM) [%] | Anti-proliferative toxicity data in VCaP cells (VCaP cells; 0.16000 μM) [%] | IC50 (VCaP cells) [nM] | further results |
| --- | --- | --- | --- | --- | --- | --- | --- | --- | --- | --- | --- | --- | --- | --- | --- | --- | --- | --- | --- | --- | --- |
| C[C@]12C=CC(=O)N[C@@H]1CC[C@@H]1[C@@H]2CC[C@]2(C)[C@@H](C(=O)Nc3cccc(N[C@@H]4CCC[C@@H](Nc5cccc6c5C(=O)N(C5CCC(=O)NC5=O)C6=O)C4)c3)CC[C@@H]12 (stereo partly drawn) [C59, N-(3-(N—(N-(4-(2-(3-(2,6-dioxopiperidine))-isoindole-1,3-dione))-1R,3R-cyclohexanediamine))phenyl)-3-oxo-4-aza-5α-androst-1-ene-17β-carboxamide] | 0.1 to 10 | 8.3 | 41.3 | 79.6 | 80.7 | 81.1 | 81.1 | 81.9 | 82.3 | 0.1 to 10 | 0.6 | 62.5 | 78.6 | 88.3 | 92.7 | 93.5 | 94.1 | 94.6 | 94.6 | ≤ 0.1 | – |
| C[C@]12C=CC(=O)N[C@@H]1CC[C@@H]1[C@@H]2CC[C@]2(C)[C@@H](C(=O)Nc3cccc(N[C@@H]4CCC[C@@H](Nc5cccc6c5C(=O)N([C@H]5CCC(=O)NC5=O)C6=O)C4)c3)CC[C@@H]12 [C63, N-(3-(N—(N-(4-(2-(3S-(2,6-dioxopiperidine))-isoindole-1,3-dione))-1R,3R-cyclohexanediamine))phenyl)-3-oxo-4-aza-5α-androst-1-ene-17β-carboxamide] | 0.1 to 10 | 23.5 | 62.4 | 76.5 | 87.8 | 86.5 | 88.0 | 86.9 | 84.5 | 0.1 to 10 | 25.2 | 75.7 | 80.2 | 89.2 | 93.1 | 94.0 | 94.3 | 94.5 | 94.8 | ≤ 0.1 | inhibition at 64 pM (MDA-MB-468 cells; 0.000064 μM): 4.42%; inhibition at 0.00032 µM (MDA-MB-468 cells; 0.000320 μM): 30.5%; inhibition at 0.0016 µM (MDA-MB-468 cells; 0.001600 μM): 55.1%; inhibition at 0.008 µM (MDA-MB-468 cells; 0.008000 μM): 64.6%; inhibition at 0.04 µM (MDA-MB-468 cells; 0.040000 μM): 65%; inhibition at 0.2 µM (MDA-MB-468 cells; 0.200000 μM): 65.5%; inhibition at 1 µM (MDA-MB-468 cells; 1.000000 μM): 70.2%; inhibition at 5 µM (MDA-MB-468 cells; 5.000000 μM): 74% |
